Here are results for three molecules from patent US20170274014A1, “COMBINATIONS OF LOW, IMMUNE ENHANCING, DOSES OF MTOR INHIBITORS AND CARS” (Novartis AG, priority 2014, published 2017).

Assay [1] concerns PI3K/mTOR. The conditions noted are these: relatively higher concentrations; cited from earlier work.
Assay [2] concerns the target mTOR (Homo sapiens, UniProt P42345). The conditions noted are these: low concentration; cited from earlier work.
For assay [3] the following is noted: old mice; cited from earlier work.
In assay [4] the test system is influenza vaccination. The settings on record: elderly mice, 6 weeks of treatment; cited from earlier work.
For assay [5] the following is noted: mice; cited from earlier work.
In assay [6] the test system is influenza. The conditions noted are these: mice vaccinated against influenza in the presence of rapamycin; cited from earlier work.
Assay [7] relates to NFAT inducible promoter driven luciferase activity. It counts as cell-based. The conditions noted are these: PDL1-Fc coated plate as compared to control treatment by IgG1-Fc; Jurkat JNL cells. The protocol: Jurkat cells with NFAT-LUC reporter (JNL) were grown to the density of 0.5×10^6/ml in Jurket cell growth media with puromycin at 0.5 μg/ml. For each transfection 3×10^6 cells were spin down at 100 g for 10 minutes. Four μg DNA per construct were used per transfection. Amaxa Nucleofector solution V and supplement I was mixed and 100 μl was added into the tube with DNA construct. The mixture was then added to the cells and transferred to the electroporation cuvette. Electroporation was done under setting X-001 using Amaxa Nucleofector II Device. 0.5 ml of growth media was added immediately after electroporation and the mixture were transferred into 2 ml growth media in one well of the 6-well plate. After two hours, the rapalogue compound at various concentrations was added to cells. The cells were applied to tissue culture plate wells that were coated by the target. Tissue culture plate was coated with 5 μg/ml of PDL1-Fc or IgG1-Fc or any target for 2 hrs at 37° C., then blocked with the blocking buffer (DPBS with 5% serum) for 30 minutes. The transfected cells were added to the target plate with 100 μl per well and incubated further for 16 hrs. Luciferase One Glo reagent 100 μl was added per well. The samples were incubated for 5 min at 37° C. and then luminescence is measured using Envision plate reader.

For `Cn1c(=O)n(-c2ccc(C(C)(C)C#N)cc2)c2c3cc(-c4cnc5ccccc5c4)ccc3ncc21` [BEZ235, 2-methyl-2-[4-(3-methyl-2-oxo-8-quinolin-3-yl-2,3-dihydro-imidazo[4,5-c]quinolin-1-yl)-phenyl]-propionitrile], the “concentration giving dual PI3K/mTOR inhibition” value in assay [1] is reported as “approximately 500 nmol/L”. The “concentration at which mTOR inhibition predominates” value in assay [2] is “less than 100 nmol/L”.

`CO[C@H]1C[C@@H]2CC[C@@H](C)[C@@](O)(O2)C(=O)C(=O)N2CCCC[C@H]2C(=O)O[C@H]([C@H](C)C[C@@H]2CC[C@@H](O)[C@H](OC)C2)CC(=O)[C@H](C)/C=C(\C)[C@@H](O)[C@@H](OC)C(=O)[C@H](C)C[C@H](C)/C=C/C=C/C=C/1C` [rapamycin]: in assay [3], the Spontaneous physical activity entry is “increases spontaneous physical activity”. For the same molecule, in assay [4], the “Response to influenza vaccination” value is given as “improved response to influenza vaccination”. Moreover, in assay [5], the Lifespan result is reported as “extend lifespan”. Further, the “Serologic response to influenza as compared to placebo” value in assay [6] is given as “broader serologic response”.

Consider “PD1 CAR: CAR construct PD1-ECD-TM-4-1BB-CD3zeta, SEQ ID NO: 26”, for which the “Activation of NFAT inducible promoter driven luciferase activity” value in assay [7] is given as “significant PD1 induced activation”.
